Measurements taken from patent publication US20250388571A1, “AMP-ACTIVATED PROTEIN KINASE MODULATOR COMPOUNDS AND USES THEREOF” (Biolexis Therapeutics, Inc., priority 2024, published 2025).
“Also recorded” adds a separate entry of the source.

How the values were obtained:
AMPK (A2/B1/G3) = AMPK (A2/B1/G3) (Homo sapiens, UniProt P54646+Q9UGI9+Q9Y478); experiment: AMPK kinase binding activity in activation mode (AC50); type: biochemical
AMPK (A2/B1/G2) = AMPK (A2/B1/G2) (Homo sapiens, UniProt P54646+Q9UGJ0+Q9Y478); experiment: as above; type: biochemical
From the text: In Vitro AMPK Kinase Inhibition Experiments

AMPK (A2/B1/G1) = AMPK (A2/B1/G1) (Homo sapiens, UniProt P54619+P54646+Q9Y478); experiment: as above; type: biochemical
[1] = tested on: human skeletal muscle cells (HSKM cells); experiment: Glucose uptake assay, human skeletal muscle cells; type: cell-based; settings: for glucose uptake: starved, treated 1 hour; for dose dependence of glucose uptake (printed: activation of insulin / AMPK activation): 100 μM to 0.005 μM, 1 hour
Description: FIGS. 1-4 show results for cells treated with differing doses of representative compounds of Structure (I) (i.e., compound I-11 in FIG. 1 and compound I-7 in FIG. 2) as well reference compounds (i.e., PF-06409577 in FIG. 3 and MK-8722 in FIG. 4). […] Cells were starved for 3 hours in high glucose DMEM without FBS, then treated with indicated compounds in DMEM without FBS/glucose for 1 hour, and glucose uptake was detected using an uptake glucose kit (Promega). The bars show (from left to right) concentrations of 100 μM, 33 μM, 11 μM, 3.7 μM, 1.23 μM, 0.41 μM, 0.14 μM, 0.045 μM, 0.015 μM, 0.005 μM, 0 μM, and insulin.
(§1) Human skeletal myoblasts were obtained (Thermofisher; BYU) and cultured in DMEM/F12 medium with 10% FBS. For differentiation, 2% horse serum low glucose DMEM medium was employed for 72 hours. Human cardiomyocytes cells (HCM cells; Promocell) were cultured in myocyte growth medium (Promocell). Human preadipocyte HWP-c cells (Promocell) were obtained from upper arm of diabetic II donor. Human preadipocyte HWP-c cells (Promocell) were obtained from abdomen of diabetic II donor. For differentiating human preadipocytes, cells were cultured in preadipocyte growth medium to total confluency stage. The growth medium was replaced with preadipocyte differentiation medium for 72 hours, then changed to PromoCell adipocyte nutrition medium to complete the differentiation process. THLE-2 cells were cultured in BEGM from Lonza/Clonetics Corporation, Walkersville, MD 21793 (BEGM Bullet Kit; CC3170). HepG2, L6 and C2Cl2 cells were cultured in EMEM medium.
(§2) After differentiation myoblasts, preadipocyte cells were starved by removing the medium and adding 100 μL DMEM without serum. The medium was then replaced with 100 μL DMEM±1 μM insulin at indicated concentration of representative compounds without serum or glucose. The cells were then incubated for 1 hour at 37° C. in 5% CO2. The cells were then removed from the medium and 50 μL of 0.1 mM 2DG in PBS was added. Cells were incubated for 30 minutes at 25° C. 25 μL of Stop Buffer was added and samples were mixed. 25 μL of Neutralization Buffer was then added and mixed. 100 μL of 2DG6P Detection Reagent was then added and mixed. Samples were then incubated for 1 hour at 25° C. Luminescence was then recorded with 0.3-1 second integration on a luminometer.

[2] = tested on: Human white preadipocyte (HWP) cells; experiment: Glucose uptake assay, human white preadipocyte cells; type: cell-based; settings: for glucose uptake: human adipocyte cells / HWP-c cells, donor site not stated
Description: (§3) FIGS. 5-8 show results for glucose update assays in Human white preadipocyte (HWP) cells (Promocell, cat. No. C-12735) when treated with compound I-11 (FIG. 5), compound I-7 (FIG. 6), MK-8722 (FIG. 7), and PF-06409577 (FIG. 8). HWP cells (subcutaneous upper arm of obese patient) were starved for 3 hours in DMEM without FBS, treated with the components noted above in […] DMEM without FBS/glucose for 1 hour, and glucose uptake was detected using a glucose uptake kit (Promega). […] The bars show (from left to right) concentrations of 100 μM, 33 μM, 11 μM, 3.7 μM, 1.23 μM, 0.41 μM, 0.14 μM, 0.045 μM, 0.015 μM, 0.005 μM, 0 μM, and insulin.
as §3, with “9-12” for “5-8”, “9),” for “5),”, “10),” for “6),”, “11),” for “7),”, “12).” for “8).”, “(abdomen cells)” for “(subcutaneous upper arm of obese patient)”
as §1, §2

[3] = tested on: human hepatocytes-THLE-2 cells; experiment: Glucose uptake assay, THLE-2 cells; type: cell-based
Description: FIGS. 13-16 show results for glucose update assays in THLE-2 cells (ATCC, cat. No. CRL-2706) when treated with compound I-11 (FIG. 13), compound I-7 (FIG. 14), MK-8722 (FIG. 15), and PF-06409577 (FIG. 16). The THLE-2 cells were starved for 3 hours in high glucose DMEM without FBS, treated with the components noted above in DMEM without FBS/glucose for 1 hour, and glucose uptake was detected using a glucose uptake kit (Promega). The bars show (from left to right) concentrations of 100 μM, 33 μM, 11 μM, 3.7 μM, 1.23 μM, 0.41 μM, 0.14 μM, 0.045 μM, 0.015 μM, 0.005 μM, 0 μM, and insulin.
as §1, §2

[4] = tested on: human cardiomyocyte cells (HCM); experiment: Glucose uptake assay, human cardiomyocyte cells; type: cell-based; settings: for glucose uptake: donor not stated; for AMPK activation activity (glucose uptake assay): 10 doses 100 μM to 0.005 μM
Description: FIGS. 17-19 show results for glucose update assays in human cardiomyocyte cells (“HCM”-healthy donor) (Promocell, cat. no. C-12810) when treated with compound I-11 (FIG. 17), compound I-7 (FIG. 18), and PF-06409577 (FIG. 19). After recovered HCM cells for 4 days, cells were starved for 3 hours in high glucose DMEM without FBS, treated with the components noted above in DMEM without FBS/glucose for 1 hour, and glucose uptake was detected using a glucose uptake kit (Promega). […] The bars show (from left to right) concentrations of 100 μM, 33 μM, 11 μM, 3.7 μM, 1.23 μM, 0.41 μM, 0.14 μM, 0.045 μM, 0.015 μM, 0.005 μM, 0 μM, and insulin.
FIGS. 20-22 show results for glucose update assays in human cardiomyocyte cells (“HCM”-diabetic donor) (Promocell, cat. no. C-12810) when treated with compound I-11 (FIG. 20), compound I-7 (FIG. 21), and PF-06409577 (FIG. 22). After recovered HCM cells for 4 days, cells were starved for 3 hours in high glucose DMEM without FBS, treated with the components noted above in DMEM without FBS/glucose for 1 hour, and glucose uptake was detected using a glucose uptake kit (Promega). […] The bars show (from left to right) concentrations of 100 μM, 33 μM, 11 μM, 3.7 μM, 1.23 μM, 0.41 μM, 0.14 μM, 0.045 μM, 0.015 μM, 0.005 μM, 0 μM, and insulin.
as §1, §2

[5] = tested on: AMPK signal pathway in HSKM cells; experiment: Western blot assay, HSKM cells; type: cell-based, human; settings: some high dosage groups; cell type not given
[6] = tested on: AMPK signal pathway in human cardiac myocytes (HCM); experiment: Western blot assay, human cardiomyocytes; type: cell-based

Sequence of AMPK (A2/B1/G2) (P54646 whole entry): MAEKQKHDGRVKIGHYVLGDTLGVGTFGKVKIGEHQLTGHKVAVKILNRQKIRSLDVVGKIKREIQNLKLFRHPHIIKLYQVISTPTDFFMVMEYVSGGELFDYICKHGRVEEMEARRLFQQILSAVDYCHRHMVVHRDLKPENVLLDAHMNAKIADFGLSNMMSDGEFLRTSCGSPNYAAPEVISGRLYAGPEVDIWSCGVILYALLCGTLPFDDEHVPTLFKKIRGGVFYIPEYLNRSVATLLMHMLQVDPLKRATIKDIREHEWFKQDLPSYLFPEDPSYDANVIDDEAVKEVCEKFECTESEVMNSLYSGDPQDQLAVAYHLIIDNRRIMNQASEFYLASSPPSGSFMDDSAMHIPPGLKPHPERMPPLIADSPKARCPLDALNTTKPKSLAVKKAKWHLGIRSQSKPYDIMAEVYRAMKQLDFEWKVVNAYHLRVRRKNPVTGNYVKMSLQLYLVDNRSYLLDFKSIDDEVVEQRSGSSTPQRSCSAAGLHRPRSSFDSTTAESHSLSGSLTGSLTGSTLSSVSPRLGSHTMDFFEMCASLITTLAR
Sequence of AMPK (A2/B1/G2) (Q9Y478 whole entry): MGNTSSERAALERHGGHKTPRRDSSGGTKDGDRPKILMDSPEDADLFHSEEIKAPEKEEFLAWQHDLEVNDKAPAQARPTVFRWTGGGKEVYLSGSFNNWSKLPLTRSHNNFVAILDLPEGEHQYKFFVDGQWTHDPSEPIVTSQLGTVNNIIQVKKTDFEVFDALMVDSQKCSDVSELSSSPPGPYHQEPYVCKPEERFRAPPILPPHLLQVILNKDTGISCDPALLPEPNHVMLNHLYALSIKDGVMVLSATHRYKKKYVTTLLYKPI
Sequence of AMPK (A2/B1/G2) (Q9UGJ0 whole entry): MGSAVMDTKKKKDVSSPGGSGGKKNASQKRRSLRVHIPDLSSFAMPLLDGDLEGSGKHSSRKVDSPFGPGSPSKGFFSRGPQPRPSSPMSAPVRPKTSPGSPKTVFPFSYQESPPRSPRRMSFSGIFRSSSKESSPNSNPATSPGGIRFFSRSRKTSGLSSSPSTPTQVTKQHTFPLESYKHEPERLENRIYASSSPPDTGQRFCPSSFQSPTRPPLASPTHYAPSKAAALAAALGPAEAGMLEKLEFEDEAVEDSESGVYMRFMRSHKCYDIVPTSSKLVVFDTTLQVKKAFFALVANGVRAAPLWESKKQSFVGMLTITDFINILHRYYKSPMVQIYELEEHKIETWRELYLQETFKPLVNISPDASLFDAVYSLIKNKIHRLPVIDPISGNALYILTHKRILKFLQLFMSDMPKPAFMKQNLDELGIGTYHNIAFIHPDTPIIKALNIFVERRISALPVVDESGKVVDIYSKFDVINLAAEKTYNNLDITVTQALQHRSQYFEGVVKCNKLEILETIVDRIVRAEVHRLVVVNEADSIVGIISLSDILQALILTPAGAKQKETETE
Sequence of AMPK (A2/B1/G1) (P54646 whole entry): as the sequence (P54646 whole entry) above
Sequence of AMPK (A2/B1/G1) (Q9Y478 whole entry): as the sequence (Q9Y478 whole entry) above
Sequence of AMPK (A2/B1/G1) (P54619 whole entry): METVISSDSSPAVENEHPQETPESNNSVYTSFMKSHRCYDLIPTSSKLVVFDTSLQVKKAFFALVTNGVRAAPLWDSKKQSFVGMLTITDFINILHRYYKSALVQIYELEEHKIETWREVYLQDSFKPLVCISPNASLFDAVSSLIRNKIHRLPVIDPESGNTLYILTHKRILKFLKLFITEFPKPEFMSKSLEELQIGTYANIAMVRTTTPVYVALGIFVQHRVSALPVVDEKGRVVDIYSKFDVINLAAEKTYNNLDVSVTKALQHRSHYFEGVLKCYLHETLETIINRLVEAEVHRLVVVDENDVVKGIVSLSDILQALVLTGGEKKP
Sequence of AMPK (A2/B1/G3) (P54646 whole entry): as the sequence (P54646 whole entry) above
Sequence of AMPK (A2/B1/G3) (Q9Y478 whole entry): as the sequence (Q9Y478 whole entry) above
Sequence of AMPK (A2/B1/G3) (Q9UGI9 whole entry): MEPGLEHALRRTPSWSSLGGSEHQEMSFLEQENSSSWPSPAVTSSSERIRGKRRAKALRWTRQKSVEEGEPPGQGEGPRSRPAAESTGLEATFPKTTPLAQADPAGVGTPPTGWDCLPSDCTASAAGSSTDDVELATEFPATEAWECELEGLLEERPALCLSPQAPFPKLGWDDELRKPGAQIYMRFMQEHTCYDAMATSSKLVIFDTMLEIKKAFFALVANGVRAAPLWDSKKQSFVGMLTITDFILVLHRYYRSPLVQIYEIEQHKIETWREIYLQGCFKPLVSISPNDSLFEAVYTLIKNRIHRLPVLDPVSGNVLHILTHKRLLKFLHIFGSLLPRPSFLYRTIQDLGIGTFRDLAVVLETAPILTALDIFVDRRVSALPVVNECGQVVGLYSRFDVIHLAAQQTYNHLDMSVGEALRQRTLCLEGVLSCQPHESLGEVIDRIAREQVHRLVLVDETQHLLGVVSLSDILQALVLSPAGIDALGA

Compound	AC50 (AMPK (A2/B1/G3))	AC50 (AMPK (A2/B1/G2))	AC50 (AMPK (A2/B1/G1))	glucose uptake [1]	glucose uptake [2]	glucose uptake [3]	glucose uptake [4]	p-AMPK, p-ACC, and p-Raptor expression [5]	dose dependence of glucose uptake (printed: activation of insulin / AMPK activation) [1]	dose dependence of glucose uptake (printed: activates insulin) ([2]; HWP cells, abdomen cells, 100 μM to 0.005 μM, 1 hour)	AMPK activation activity (glucose uptake assay) ([4]; diabetic donor)	AMPK activation activity (glucose uptake assay) ([4]; healthy donor)	p-ACC/p-AMPK and AMPKα2β2γ3 expression [6]
O=c1[nH]c(-c2c[nH]c3cc(Cl)c(-c4ccc(C5(O)CCC5)cc4)cc23)no1 [Compound I-1, 3-(6-chloro-5-(4-(1-hydroxycyclobutyl)phenyl)-1H-indol-3-yl)-1,2,4-oxadiazol-5(4H)-one]	≤ 0.01 µM	≤ 0.01 µM	0.01 to 0.5 µM	induced glucose uptake; also recorded: increased glucose uptake	induced glucose uptake	induced glucose uptake	did not induce glucose uptake in dose-dependent manner	could induce	–	–	–	–	–
O=c1[nH]c(-c2c[nH]c3cc(F)c(-c4ccc(C5(O)CCC5)cc4)cc23)no1 [Compound I-7, 3-(6-fluoro-5-(4-(1-hydroxycyclobutyl)phenyl)-1H-indol-3-yl)-1,2,4-oxadiazol-5(4H)-one]	–	–	–	induced glucose uptake; also recorded: increased glucose uptake	induced glucose uptake	induced glucose uptake	did not induce glucose uptake in dose-dependent manner	could induce	dose dependence	dose dependent manner	did not show AMPK activation activity	did not show AMPK activation activity	–
O=c1[nH]c(-c2c[nH]c3ccc(-c4ccc(C5(O)CCC5)cc4)cc23)no1 [Compound I-10, 3-(5-(4-(1-hydroxycyclobutyl)phenyl)-1H-indol-3-yl)-1,2,4-oxadiazol-5(4H)-one]	0.01 to 0.5 µM	0.01 to 0.5 µM	0.01 to 0.5 µM	induced glucose uptake; also recorded: increased glucose uptake	induced glucose uptake	induced glucose uptake	did not induce glucose uptake in dose-dependent manner	could induce	–	–	–	–	–
O[C@@H]1CO[C@H]2[C@@H]1OC[C@H]2Oc1nc2nc(-c3ccc(-c4ccccc4)cc3)c(Cl)cc2[nH]1 [MK-8722, reference compound]	–	–	–	–	–	–	could increase glucose uptake	–	highly variable	–	–	–	may be able to increase
